# Non-standard residues stand in square brackets, D forms with d. Residues, ends and D or L forms follow the SMILES beside them. *: point of attachment. NMeY = CN[C@@H](Cc1ccc(O)cc1)C(=O)O; Agmatine = N=C(N)NCCCCN*; Nle = CCCC[C@H](N)C(=O)O; Orn = NCCC[C@H](N)C(=O)O; Abu = CC[C@H](N)C(=O)O
# Key:
# GH release = experiment: GH releasing potency in vivo, subcutaneous administration (Example 14, Table 12); parameters: species or system rat; conditions: s.c.; for Serum GH level at selected time after injection (ng/ml), 0 min / Serum GH level at selected time after injection (ng/ml), 15 min / Serum GH level at selected time after injection (ng/ml), 30 min: male rats, dose 3 μg/kg, mean ± SEM
# Method in brief: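 Potency is expressed relative to GHRH(1-29)NH2 and JI-38 (each = 1), via equivalent GHRH(1-29)NH2 dose read from a standard curve. Peptides in 5% mannitol given i.v. or s.c. to anaesthetised male Sprague-Dawley rats (200-250 g); serum GH measured by ELISA at selected times.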
# [1] = system: myocardial infarction (Fisher-344 rats); experiment: Hemodynamic analysis (pressure-volume loops), body and heart weight after MI, compared to JI-38 (Example 15, Table 16); type: in vivo, rat; parameters: key to ESP (End-Systolic Pressure) / EDP (End-Diastolic Pressure) / ESV (End-Systolic Volume) / PRSW (Preload Recruitable Stroke Work) / Ees (End-systolic Elastance) / dP/dt max (peak rate of the pressure rise) / dP/dt max_EDV / dP/dt min / TAU (relaxation time constant calculated by Weiss method) / SV (Stroke Volume) / CO (Cardiac Output) / SW (Stroke Work) / EF / Ea/Ees / Ea (arterial Elastance): ↓: downward arrow denotes lower than JI-38; ↑: upward arrow denotes greater than JI-38; =denotes same as JI-38; ⬇⬇: double arrow denotes greater effect; ⬆⬆: double arrow denotes greater effect; conditions: rat MI model, s.c. twice daily; pressure-volume loops; expressed in comparison to JI-38
# Method in brief: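 Female 6-month-old Fisher-344 rats after permanent left coronary ligation received GHRH agonists subcutaneously twice daily from 2 h post-surgery (n=10/group). Under ketamine/xylazine/acepromazine anesthesia, LV pressure-volume loops were recorded via carotid micromanometer catheter, calibrated by hypertonic saline bolus and cuvette method; echocardiography also serial.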
# GHRH receptor [2] = molecular target: T1, GHRH receptor (Homo sapiens, UniProt Q02643); experiment: Receptor binding in vitro, 125I-labeled [His1,Nle27]-hGHRH(1-32)NH2, membrane receptors of human anterior pituitary cells (Table 14); conditions: for Relative affinity (Binding potency) compared to JI-38: JI-38 = 1; for GHRH receptor binding affinity (in words): compared to JI-38; for Relative affinity (Binding potency) compared to hGHRH(1-29): hGHRH(1-29)NH2 = 1
# T1 sequence (Q02643 23-423): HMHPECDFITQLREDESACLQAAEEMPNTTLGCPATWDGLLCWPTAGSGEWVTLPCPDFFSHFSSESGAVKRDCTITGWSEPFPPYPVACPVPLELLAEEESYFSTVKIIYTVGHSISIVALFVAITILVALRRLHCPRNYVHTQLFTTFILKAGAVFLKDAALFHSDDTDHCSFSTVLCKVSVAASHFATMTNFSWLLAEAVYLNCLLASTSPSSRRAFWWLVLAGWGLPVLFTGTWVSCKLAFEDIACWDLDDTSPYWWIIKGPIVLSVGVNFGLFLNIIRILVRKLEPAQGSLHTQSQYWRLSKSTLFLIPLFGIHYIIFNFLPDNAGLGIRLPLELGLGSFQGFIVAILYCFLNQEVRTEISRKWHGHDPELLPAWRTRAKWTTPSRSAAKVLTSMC
# Text: Normal human pituitary was purchased from the National Hormone and Peptide Program (UCLA Medical Center, Torrance, Calif.).
# GHRH receptor [3] = molecular target: T1, GHRH receptor; experiment: GHRH receptor binding, competition with 125I-labeled JV-1-42, human pituitary membrane homogenates (Table 7); parameters: Normal human pituitaries were purchased from the National Hormone and Peptide Program; tissue National Hormone and Peptide Program (A.F. Parlow, Harbor-UCLA Medical Center, Torrance, Calif.); host or cells: normal human pituitary, membrane fraction; conditions: JI-38 = 1, Table 7
# Text: Normal human pituitaries were purchased from the National Hormone and Peptide Program (A.F. Parlow, Los Angeles, County Harbor-UCLA Medical Center, Torrance, Calif.).
structure (smiles),measurement,setting,value
"CCCC[C@H](NC(=O)[C@@H](NC(=O)[C@H](CC(=O)O)NC(=O)[C@H](CCC(N)=O)NC(=O)[C@H](CC(C)C)NC(=O)[C@H](CC(C)C)NC(=O)[C@H](CCCN)NC(=O)[C@H](CCCNC(=N)N)NC(=O)[C@H](C)NC(=O)[C@H](CO)NC(=O)[C@H](CC(C)C)NC(=O)[C@H](CCC(N)=O)NC(=O)[C@H](CC)NC(=O)[C@H](CC(C)C)NC(=O)[C@@H](NC(=O)[C@H](CCCN)NC(=O)[C@H](CCCNC(=N)N)NC(=O)[C@H](Cc1ccc(O)cc1)NC(=O)[C@H](CO)NC(=O)[C@H](CC(N)=O)NC(=O)[C@@H](NC(=O)[C@H](Cc1ccccc1)NC(=O)[C@@H](NC(=O)[C@H](C)NC(=O)[C@H](CC(=O)O)NC(=O)[C@@H](C)NC(=O)[C@H](Cc1ccc(O)cc1)NC)[C@@H](C)CC)[C@@H](C)O)C(C)C)[C@@H](C)CC)C(=O)N[C@@H](CC(=O)O)C(=O)NCCCCNC(=N)N [Peptide P-20367, [N—Me-Tyr^1, D-Ala^2, Orn^12, Abu^15, Orn^21, Nle^27, Asp^28, Agm^29]hGHRH(1-29)NH2] (H-[NMeY][dA]DAIFTNSYR[Orn]VL[Abu]QLSAR[Orn]LLQDI[Nle]D-Agmatine)","Serum GH level at selected time after injection (ng/ml), 0 min",GH release,41.1 ± 5.6 ng/mL
same,"Serum GH level at selected time after injection (ng/ml), 15 min",GH release,244.0 ± 25.1 ng/mL
same,"Serum GH level at selected time after injection (ng/ml), 30 min",GH release,141.2 ± 12.3 ng/mL
same,"Relative potency compared to GHRH(1-29), 15 min",GH release,68.1
same,"Relative potency compared to JI-38, 15 min",GH release,1.08
same,"Relative potency compared to GHRH(1-29), 30 min",GH release,131.7
same,"Relative potency compared to JI-38, 30 min",GH release,1.18
same,CO (Cardiac Output),[1],↑
same,EDP (End-Diastolic Pressure),[1],↑
same,EF,[1],=
same,ESP (End-Systolic Pressure),[1],↑
same,ESV (End-Systolic Volume),[1],↑
same,Ea (arterial Elastance),[1],=
same,Ea/Ees,[1],↓
same,Ees (End-systolic Elastance),[1],=
same,PRSW (Preload Recruitable Stroke Work),[1],=
same,SV (Stroke Volume),[1],=
same,SW (Stroke Work),[1],↓
same,TAU (relaxation time constant calculated by Weiss method),[1],=
same,dP/dt max (peak rate of the pressure rise),[1],=
same,dP/dt max_EDV,[1],=
same,dP/dt min,[1],=
same,Relative affinity (Binding potency) compared to JI-38,GHRH receptor [2],2.51
same,GHRH receptor binding affinity (in words),GHRH receptor [2],improved receptor binding affinity
same,Relative affinity (Binding potency) compared to hGHRH(1-29),GHRH receptor [2],7.01
same,Relative affinity (Binding potency) vs JI-38,GHRH receptor [3],2.56
"CCCC[C@H](NC(=O)[C@@H](NC(=O)[C@H](CC(=O)O)NC(=O)[C@H](CCC(N)=O)NC(=O)[C@H](CC(C)C)NC(=O)[C@H](CC(C)C)NC(=O)[C@H](CCCN)NC(=O)[C@H](CCCNC(=N)N)NC(=O)[C@H](C)NC(=O)[C@H](CO)NC(=O)[C@H](CC(C)C)NC(=O)[C@H](CCC(N)=O)NC(=O)[C@H](CC)NC(=O)[C@H](CC(C)C)NC(=O)[C@@H](NC(=O)[C@H](CCCN)NC(=O)[C@H](CCCNC(=N)N)NC(=O)[C@H](Cc1ccc(O)cc1)NC(=O)[C@H](CO)NC(=O)[C@H](CCC(N)=O)NC(=O)[C@@H](NC(=O)[C@H](Cc1ccccc1)NC(=O)[C@@H](NC(=O)[C@H](C)NC(=O)[C@H](CC(=O)O)NC(=O)[C@@H](C)NC(=O)[C@H](Cc1ccc(O)cc1)NC)[C@@H](C)CC)[C@@H](C)O)C(C)C)[C@@H](C)CC)C(=O)N[C@@H](CC(=O)O)C(=O)NCCCCNC(=N)N [Peptide P-20361, [N—Me-Tyr^1, D-Ala^2, Gln^8, Orn^12, Abu^15, Orn^21, Nle^27, Asp^28, Agm^29] hGHRH (1-29)NH2] (H-[NMeY][dA]DAIFTQSYR[Orn]VL[Abu]QLSAR[Orn]LLQDI[Nle]D-Agmatine)","Serum GH level at selected time after injection (ng/ml), 0 min",GH release,46.1 ± 6.3 ng/mL
same,"Serum GH level at selected time after injection (ng/ml), 15 min",GH release,275.9 ± 46.4 ng/mL
same,"Serum GH level at selected time after injection (ng/ml), 30 min",GH release,142.6 ± 18.4 ng/mL
same,"Relative potency compared to GHRH(1-29), 15 min",GH release,80
same,"Relative potency compared to JI-38, 15 min",GH release,1.27
same,"Relative potency compared to GHRH(1-29), 30 min",GH release,134.1
same,"Relative potency compared to JI-38, 30 min",GH release,1.20
same,CO (Cardiac Output),[1],=
same,EDP (End-Diastolic Pressure),[1],↑
same,EF,[1],=
same,ESP (End-Systolic Pressure),[1],↑
same,ESV (End-Systolic Volume),[1],↑
same,Ea (arterial Elastance),[1],↑
same,Ea/Ees,[1],↓
same,Ees (End-systolic Elastance),[1],↑
same,PRSW (Preload Recruitable Stroke Work),[1],=
same,SV (Stroke Volume),[1],↓
same,SW (Stroke Work),[1],↓
same,TAU (relaxation time constant calculated by Weiss method),[1],↑
same,dP/dt max (peak rate of the pressure rise),[1],=
same,dP/dt max_EDV,[1],↑
same,dP/dt min,[1],=
same,Relative affinity (Binding potency) compared to JI-38,GHRH receptor [2],2.30
same,GHRH receptor binding affinity (in words),GHRH receptor [2],improved receptor binding affinity
same,Relative affinity (Binding potency) compared to hGHRH(1-29),GHRH receptor [2],6.42
same,Relative affinity (Binding potency) vs JI-38,GHRH receptor [3],5.30

# Source: patent publication US10555987B2, “GHRH agonists for the treatment of ischemic disorders” (UNIVERSITY OF MIAMI, priority 2012, dated 2020)
